Source: patent publication US9597375B2, “Coagulation and fibrinolytic cascades modulator” (The Board of Trustees of the University of Illinios, priority 2005, dated 2017)
“Also recorded” adds a separate entry of the source. Where two headings read alike, the source gives them in different places.

Columns and labels:
TFPI = target: T1, TFPI (Homo sapiens, UniProt P10646); format: biochemical
T1 construct: Recombinant, full-length human TFPI was a kind gift of Dr. George Broze; gift of Dr. George Broze, Washington University St. Louis
T1 sequence (P10646 29-304): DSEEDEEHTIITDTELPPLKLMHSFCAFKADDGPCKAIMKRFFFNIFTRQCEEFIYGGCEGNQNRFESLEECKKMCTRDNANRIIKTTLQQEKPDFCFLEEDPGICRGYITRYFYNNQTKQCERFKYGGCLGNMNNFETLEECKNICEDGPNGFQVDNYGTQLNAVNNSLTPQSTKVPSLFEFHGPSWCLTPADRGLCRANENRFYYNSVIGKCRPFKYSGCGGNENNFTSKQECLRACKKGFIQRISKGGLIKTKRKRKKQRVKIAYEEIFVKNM
Experimental: The hypothesis that polyP might block the anticoagulant effect of TFPI was tested. This was examined in a dilute PT assay in which varying concentrations of recombinant TFPI were added to plasma samples. Plasma normally contains relatively low levels of free TFPI, so adding exogenous TFPI can dramatically lengthen PT clotting times.
Coagulometer-based plasma clotting assays—Recombinant human tissue factor was reconstituted into phospholipid vesicles as previously described [18], using a mixture of 20% phosphatidylserine and 80% phosphatidylcholine at a phospholipid:tissue factor molar ratio of 8700:1. Blank phospholipid vesicles (PCPS vesicles) composed of 20% phosphatidylserine and 80% phosphatidylcholine (and no tissue factor) were prepared as described [18]. The thromboplastin reagent for the PT assay was prepared by diluting relipidated tissue factor to a final concentration of 200 ng/ml tissue factor in TBSA buffer (50 mM Tris-HCl pH 7.5, 100 mM NaCl, 0.02% sodium azide, 0.1% (w/v) bovine serum albumin). The thromboplastin reagent for the dilute PT assay was prepared in the same manner as the reagent for the PT assay, except that the relipidated tissue factor was typically diluted to a final concentration of 1 ng/ml tissue factor in TBSA buffer containing 50 μM PCPS vesicles.
The PT, XaT, aPTT and PTT clotting assays were typically performed in a STart coagulometer (Diagnostica Stago) by pre-incubating 50 μl of human plasma with 50 μl of the indicated clotting reagent at 37° C. for the following times: PT and XaT assays, 120 sec; aPTT and PTT assays, 180 sec. Clotting was then initiated by adding 50 μl of 25 mM calcium chloride solution that had been pre-warmed to 37° C. The time to clot formation was then measured relative to the point of addition of calcium chloride. […] When the effect of TFPI on clotting was tested, TFPI was added to plasma at the indicated concentration immediately before use. When the effect of polyP on clotting was tested, polyP was added to the clotting reagent at the indicated concentration. […]

[1] = system: fibrinolysis in pooled normal plasma; assay: Plasma clot lysis model, clotting initiated by calcium ions and thrombin in presence of plasminogen activator; format: biochemical, human
Experimental: In order to study the effect of polyP on fibrinolysis independent of its effect on clotting times, the model was modified such that clotting was initiated by a mixture of calcium ions and thrombin in the presence of uPA (pooled normal plasma supplemented with 1.4 nM uPA). The amount of thrombin was chosen to yield rapid clotting times, permitting analyses to focus on the lytic phase only. […] In the absence of polyP, the clots subsequently lysed, with a 50% lysis time of 61 min in this experiment. […] The magnitude of the effect of polyP75 on the inhibition of fibrinolysis was dependent on the uPA concentration. At high uPA concentrations the effect of polyP75 could be masked, presumably reflecting a balance situation between uPA and polyP within the clot (data not shown).
Microplate-based assays of plasma clotting and fibrinolysis—Some of the clotting assays were conducted in flat-bottom, polystyrene, 96-well plates (Corning). Turbidity, a measure of clot formation, was quantified at 37° C. by measuring the absorbance of light at 405 nm in a VERSAmax microplate reader (Molecular Devices, Sunnyvale, Calif.). Reactions (100 μl final volume) typically contained the following final concentrations: 30% (v/v) human plasma; 8 mM Tris-HCl buffer, pH 7.4; 0.008% (v/v) Tween-20; 10.6 mM calcium chloride; and, variably, 10 nM thrombin. In some experiments, clotting reactions were initiated by calcium ions alone. In this case, a 1.25× reaction mixture of the above-described components (except calcium chloride) was prepared in a final volume of 80 μl per well. Clotting was then initiated by adding 20 μl of 53 mM calcium chloride and absorbance at 405 nm was monitored. In other experiments, clotting was initiated by a mixture of calcium ions and thrombin. In these cases, to the 80 μl reaction mixtures described above were added 10 μl of 106 mM calcium chloride followed immediately by 10 μl of 100 nM thrombin. […]

pooled normal plasma = assay: Dilute PT assay; format: biochemical, human
Experimental: The ability of polyP75 to influence the clotting time of a variety of clotting assays was systematically evaluated, employing commonly used plasma clotting assays including the prothrombin time (PT) assay, the partial thromboplastin time (PTT) assay, the activated partial thromboplastin time (aPTT) assay, a factor Xa clotting assay (XaT), and the thrombin time (TT) assay (FIG. 9). The PT assay, which is conducted by adding a thromboplastin reagent (a source of tissue factor activity and calcium ions) to plasma, drives coagulation through the extrinsic, or tissue factor pathway. The PTT and aPTT assays rely on the contact, or intrinsic, pathway of blood clotting. The XaT assay relies on the presence of factor V, prothrombin and fibrinogen in plasma, while the TT assay relies only on the presence of fibrinogen. Therefore, these assays assess different stages of the blood clotting cascades. All were performed in a coagulometer at 37° C.
Coagulometer-based plasma clotting assays—Recombinant human tissue factor was reconstituted into phospholipid vesicles as previously described, using a mixture of 20% phosphatidylserine and 80% phosphatidylcholine at a phospholipid:tissue factor molar ratio of 8700:1. Blank phospholipid vesicles (PCPS vesicles) composed of 20% phosphatidylserine and 80% phosphatidylcholine (and no tissue factor) were prepared as described. […]
The PT, XaT, aPTT and PTT clotting assays were typically performed in a STart coagulometer (Diagnostica Stago) by pre-incubating 50 μl of human plasma with 50 μl of the indicated clotting reagent at 37° C. for the following times: PT and XaT assays, 120 sec; aPTT and PTT assays, 180 sec. […] The time to clot formation was then measured relative to the point of addition of calcium chloride. The TT clotting assay was performed in the same coagulometer as follows: 50 μl human plasma was pre-warmed to 37° C. for 60 sec, after which 50 μl of pre-warmed TT reagent was added and the time to clot formation was measured. […]

[2] = polyP25-75 at 75 μM phosphate equivalents (FIG. 5), short phosphates data not shown

## O=P(O)(O)O [Pi, sodium phosphate]
TFPI
  blocking of TFPI anticoagulant effect, dependence on chain length: did not block TFPI anticoagulant function at all
[1]
  ability to inhibit fibrinolysis, dependence on chain length: no discernable effect on fibrinolysis

## O=P(O)(O)OP(=O)(O)O [PPi, pyrophosphate]
TFPI
  blocking of TFPI anticoagulant effect, dependence on chain length: did not block TFPI anticoagulant function at all
[1]; [2]
  ability to inhibit fibrinolysis, dependence on chain length: no discernable effect on fibrinolysis

## TFPI: Recombinant, full-length human tissue factor pathway inhibitor
Pooled normal plasma; 100 ng/ml TFPI added to pooled normal plasma, no polyP (66 sec without TFPI)
  dilute PT clotting time: over 160 sec
Pooled normal plasma; 200 ng/ml TFPI added, no polyP (59 sec without TFPI)
  dilute PT mean clotting time: 294 s
Pooled normal plasma; TFPI added to pooled normal plasma, no polyP
  effect of added TFPI on dilute PT clotting time (in words): greatly prolonged the dilute PT clotting time; also recorded: substantially prolonged

## sodium tripolyphosphate [polyP3]
TFPI; 200 ng/ml TFPI, 75 μM phosphate equivalents in dilute thromboplastin reagent (FIG. 12)
  blocking of TFPI anticoagulant effect, dependence on chain length: did not block TFPI anticoagulant function at all
[1]; [2]
  ability to inhibit fibrinolysis, dependence on chain length: no discernable effect on fibrinolysis
